The values that follow come from US20130029962A1, “Substituted Heteroaromatic Pyrazole-Containing Carboxamide and Urea Compounds as Vanilloid Receptor Ligands” (Gruenenthal GmbH, priority 2011, published 2013).

T1 sequence (Q8NER1 whole entry): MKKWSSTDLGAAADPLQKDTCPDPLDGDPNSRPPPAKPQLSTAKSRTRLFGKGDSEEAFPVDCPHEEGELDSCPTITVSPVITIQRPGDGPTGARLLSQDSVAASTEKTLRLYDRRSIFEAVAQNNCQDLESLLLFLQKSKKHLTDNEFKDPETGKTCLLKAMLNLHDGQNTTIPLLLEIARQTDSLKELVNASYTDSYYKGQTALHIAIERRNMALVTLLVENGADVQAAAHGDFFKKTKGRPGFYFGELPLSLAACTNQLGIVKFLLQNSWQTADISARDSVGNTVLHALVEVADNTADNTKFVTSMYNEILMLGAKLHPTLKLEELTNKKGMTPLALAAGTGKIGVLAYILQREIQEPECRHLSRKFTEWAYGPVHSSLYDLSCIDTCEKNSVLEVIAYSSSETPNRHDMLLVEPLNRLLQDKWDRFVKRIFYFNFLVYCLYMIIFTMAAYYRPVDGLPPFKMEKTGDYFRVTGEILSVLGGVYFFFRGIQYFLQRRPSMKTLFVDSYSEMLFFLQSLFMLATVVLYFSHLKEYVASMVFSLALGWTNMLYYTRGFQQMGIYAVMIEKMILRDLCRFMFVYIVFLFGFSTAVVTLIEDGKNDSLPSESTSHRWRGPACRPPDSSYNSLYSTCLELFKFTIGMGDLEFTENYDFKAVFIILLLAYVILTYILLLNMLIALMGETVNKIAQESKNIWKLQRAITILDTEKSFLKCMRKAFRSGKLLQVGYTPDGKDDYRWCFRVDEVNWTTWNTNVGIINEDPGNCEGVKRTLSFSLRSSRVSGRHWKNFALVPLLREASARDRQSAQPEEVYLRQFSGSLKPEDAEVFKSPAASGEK

The first assay addresses T1, vanilloid receptor 1 (VR1/TRPV1 receptor) (Homo sapiens, UniProt Q8NER1).
T1 construct: expressed in transfected cells; host or cells: CHO K1
The experiment in a line: Functional testing on the vanilloid receptor 1 (VR1/TRPV1): FLIPR Ca2+ influx assay, displacement of capsaicin. The format is cell-based, human being. Further details: key to mode of action at VR1/TRPV1 (AG, pAG, NE), Cap: AG=agonist; NE=no effect; pAG=partial agonist. As to conditions: 5 μM compound; capsaicin (Cap); human being; read-out: inhibition (as a percentage) at the concentration after @, Cap. The gist of the method:
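Fluo-4 FLIPR Ca2+ influx in CHO K1 cells transfected with human VR1, measuring displacement of 100 nM capsaicin; rat VR1 agonism/antagonism also assessed in rat dorsal root ganglion neurons cultured 2–3 days at 37° C with 25 ng/mL NGF, then loaded with 2 μM Fluo-4.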
`CS(=O)(=O)Nc1ccc(NC(=O)NCc2cc(C(F)(F)F)nn2-c2cccc(Cl)c2)cn1` [Example 101, N-(5-(3-((1-(3-chlorophenyl)-3-(trifluoromethyl)-1H-pyrazol-5-yl)methyl)ureido)pyridin-2-yl)methanesulfonamide]: the inhibition at 5 µM turned out to be 30%. In the case of `COc1ncc(NC(=O)NCc2cc(C(F)(F)F)nn2-c2cccc(Cl)c2)cn1` [Example 130, 1-((1-(3-chlorophenyl)-3-(trifluoromethyl)-1H-pyrazol-5-yl)methyl)-3-(2-methoxypyrimidin-5-yl)urea], the inhibition at 5 µM is 47%. `COCCOc1ccc(NC(=O)NCc2cc(C(C)(C)C)nn2-c2cccc(Cl)c2)cn1` [Example 131, 1-((3-tert-butyl-1-(3-chlorophenyl)-1H-pyrazol-5-yl)methyl)-3-(6-(2-methoxyethoxy)pyridin-3-yl)urea]: the inhibition at 5 µM worked out at 83%. Take `COCCOc1ccc(NC(=O)NCc2cc(C(F)(F)F)nn2-c2cccc(Cl)c2)cn1` [Example 132, 1-((1-(3-chlorophenyl)-3-(trifluoromethyl)-1H-pyrazol-5-yl)methyl)-3-(6-(2-methoxyethoxy)pyridin-3-yl)urea]: the inhibition at 5 µM is 45%. On the same count and under the same terms, for `CN(CCO)Cc1ccc(NC(=O)NCc2cc(C(F)(F)F)nn2-c2cccc(Cl)c2)cn1` [Example 135, 1-((1-(3-chlorophenyl)-3-(trifluoromethyl)-1H-pyrazol-5-yl)methyl)-3-(6-(((2-hydroxyethyl)(methyl)amino)methyl)pyridin-3-yl)urea] the value was 22%.

Still in this assay, the particulars now being: capsaicin (Cap) as stimulus; Ki from IC50 by Cheng-Prusoff; read-out: (f) Ki (human being) [nM] Cap.
On to `CC(C(=O)NCc1cc(C(C)(C)C)nn1-c1cccc(Cl)c1)c1cnc(NS(C)(=O)=O)c(F)c1` (stereo not shown) [Example 102, N-((3-tert-butyl-1-(3-chlorophenyl)-1H-pyrazol-5-yl)methyl)-2-(5-fluoro-6-(methylsulfonamido)pyridin-3-yl)propanamide], for which the Ki was 8 nM.

For the molecule `CC(C(=O)NCc1cc(C(F)(F)F)nn1-c1cccc(Cl)c1)c1cnc(NS(C)(=O)=O)c(F)c1` (stereo not shown) [Example 103, N-((1-(3-chlorophenyl)-3-(trifluoromethyl)-1H-pyrazol-5-yl)methyl)-2-(5-fluoro-6-(methylsulfonamido)pyridin-3-yl)propanamide], the Ki was 12 nM.

Turning to `COc1cc(C(C)C(=O)NCc2cc(C(F)(F)F)nn2-c2cccc(Cl)c2)cnc1NS(C)(=O)=O` (stereo not shown) [Example 104, N-((1-(3-chlorophenyl)-3-(trifluoromethyl)-1H-pyrazol-5-yl)methyl)-2-(5-methoxy-6-(methylsulfonamido)pyridin-3-yl)propanamide], the inhibition constant Ki amounted to 3 nM. Same read-out and setting: for `COc1cc(C(C)C(=O)NCc2cc(C(C)(C)C)nn2-c2cccc(Cl)c2)cnc1NS(C)(=O)=O` (stereo not shown) [Example 105, N-((3-tert-butyl-1-(3-chlorophenyl)-1H-pyrazol-5-yl)methyl)-2-(5-methoxy-6-(methylsulfonamido)pyridin-3-yl)propanamide] the value was 2 nM; for `CN(C)c1ncc(NC(=O)NCc2cc(C(F)(F)F)nn2-c2cccc(Cl)c2)cc1C(F)(F)F` [Example 106, 1-((1-(3-chlorophenyl)-3-(trifluoromethyl)-1H-pyrazol-5-yl)methyl)-3-(6-(dimethylamino)-5-(trifluoromethyl)pyridin-3-yl)urea], 25 nM. Consider `CN(C)c1ncc(NC(=O)NCc2cc(C(C)(C)C)nn2-c2cccc(Cl)c2)cc1C(F)(F)F` [Example 107, 1-((3-tert-butyl-1-(3-chlorophenyl)-1H-pyrazol-5-yl)methyl)-3-(6-(dimethylamino)-5-(trifluoromethyl)pyridin-3-yl)urea], for which the Ki was determined as 5 nM. Still for that read-out and setting: for `CC(C)(C)c1cc(CNC(=O)Nc2ccc(N3CCC3)nc2)n(-c2cccc(Cl)c2)n1` [Example 108, 1-(6-(azetidin-1-yl)pyridin-3-yl)-3-((3-tert-butyl-1-(3-chlorophenyl)-1H-pyrazol-5-yl)methyl)urea] the value was 43 nM. For `O=C(NCc1cc(C(F)(F)F)nn1-c1cccc(Cl)c1)Nc1ccc(N2CCC2)nc1` [Example 109, 1-(6-(azetidin-1-yl)pyridin-3-yl)-3-((1-(3-chlorophenyl)-3-(trifluoromethyl)-1H-pyrazol-5-yl)methyl)urea], the Ki is 46 nM. Take `CC(C)(C)c1cc(CNC(=O)Nc2ccc(N3CC(O)C3)nc2)n(-c2cccc(F)c2)n1` [Example 110, 1-((3-tert-butyl-1-(3-fluorophenyl)-1H-pyrazol-5-yl)methyl)-3-(6-(3-hydroxyazetidin-1-yl)pyridin-3-yl)urea]: the Ki turned out to be 37 nM.

As for `O=C(NCc1cc(C(F)(F)F)nn1-c1cccc(Cl)c1)Nc1ccc(N2CC(O)C2)nc1` [Example 111, 1-((1-(3-chlorophenyl)-3-(trifluoromethyl)-1H-pyrazol-5-yl)methyl)-3-(6-(3-hydroxyazetidin-1-yl)pyridin-3-yl)urea], the Ki is 38 nM. Still for that read-out and setting: for `O=C(NCc1cc(C(F)(F)F)nn1-c1cccc(F)c1)Nc1ccc(N2CC(O)C2)nc1` [Example 112, 1-((1-(3-fluorophenyl)-3-(trifluoromethyl)-1H-pyrazol-5-yl)methyl)-3-(6-(3-hydroxyazetidin-1-yl)pyridin-3-yl)urea] the value was 48 nM. Take `O=C(NCc1cc(C(F)(F)F)nn1-c1ccc(F)c(Cl)c1)Nc1ccc(N2CC(O)C2)nc1` [Example 113, 1-((1-(3-chloro-4-fluorophenyl)-3-(trifluoromethyl)-1H-pyrazol-5-yl)methyl)-3-(6-(3-hydroxyazetidin-1-yl)pyridin-3-yl)urea]: the inhibition constant Ki was 80 nM. Same read-out and setting: as for `Cc1cccc(-n2nc(C(F)(F)F)cc2CNC(=O)Nc2ccc(N3CC(O)C3)nc2)c1` [Example 114, 1-(6-(3-hydroxyazetidin-1-yl)pyridin-3-yl)-3-((1-m-tolyl-3-(trifluoromethyl)-1H-pyrazol-5-yl)methyl)urea], the figure is 35 nM; as for `CC(C)c1cccc(-n2nc(C(F)(F)F)cc2CNC(=O)Nc2ccc(N3CC(O)C3)nc2)c1` [Example 115, 1-(6-(3-hydroxyazetidin-1-yl)pyridin-3-yl)-3-((1-(3-isopropylphenyl)-3-(trifluoromethyl)-1H-pyrazol-5-yl)methyl)urea], 2 nM; as for `CC(C)(C)c1cc(CNC(=O)Nc2ccc(N3CC(O)C3)nc2)n(-c2cccc(Cl)c2)n1` [Example 117, 1-((3-tert-butyl-1-(3-chlorophenyl)-1H-pyrazol-5-yl)methyl)-3-(6-(3-hydroxyazetidin-1-yl)pyridin-3-yl)urea], 18 nM. For the molecule `CC(C)(C)c1cc(CNC(=O)Nc2ccc(N3CCCC3)nc2)n(-c2cccc(Cl)c2)n1` [Example 120, 1-((3-tert-butyl-1-(3-chlorophenyl)-1H-pyrazol-5-yl)methyl)-3-(6-(pyrrolidin-1-yl)pyridin-3-yl)urea], the Ki was 23 nM.

On to `O=C(NCc1cc(C(F)(F)F)nn1-c1cccc(Cl)c1)Nc1ccc(N2CCCC2)nc1` [Example 121, 1-((1-(3-chlorophenyl)-3-(trifluoromethyl)-1H-pyrazol-5-yl)methyl)-3-(6-(pyrrolidin-1-yl)pyridin-3-yl)urea], for which the Ki amounted to 47 nM. In the case of `COc1cc(NC(=O)NCc2cc(C(F)(F)F)nn2-c2cccc(Cl)c2)cnc1N1CCCC1` [Example 123, 1-((1-(3-chlorophenyl)-3-(trifluoromethyl)-1H-pyrazol-5-yl)methyl)-3-(5-methoxy-6-(pyrrolidin-1-yl)pyridin-3-yl)urea], the Ki stood at 83 nM. On the same count and under the same terms, for `O=C(NCc1cc(C(F)(F)F)nn1-c1cccc(Cl)c1)Nc1ccc(N2CC[C@@H](O)C2)nc1` [Example 124, (R)-1-((1-(3-chlorophenyl)-3-(trifluoromethyl)-1H-pyrazol-5-yl)methyl)-3-(6-(3-hydroxypyrrolidin-1-yl)pyridin-3-yl)urea] the value was 64 nM. Consider `O=C(NCc1cc(C(F)(F)F)nn1-c1cccc(Cl)c1)Nc1ccc(N2CC[C@H](O)C2)nc1` [Example 125, (S)-1-((1-(3-chlorophenyl)-3-(trifluoromethyl)-1H-pyrazol-5-yl)methyl)-3-(6-(3-hydroxypyrrolidin-1-yl)pyridin-3-yl)urea], for which the Ki is 64 nM. On the same count and under the same terms, for `CC(C)(C)c1cc(CNC(=O)Nc2ccc(N3CC[C@@H](O)C3)nc2)n(-c2cccc(Cl)c2)n1` [Example 126, (R)-1-((3-tert-butyl-1-(3-chlorophenyl)-1H-pyrazol-5-yl)methyl)-3-(6-(3-hydroxypyrrolidin-1-yl)pyridin-3-yl)urea] the value was 61 nM. On to `CC(C)(C)c1cc(CNC(=O)Nc2ccc(N3CC[C@H](O)C3)nc2)n(-c2cccc(Cl)c2)n1` [Example 127, (S)-1-((3-tert-butyl-1-(3-chlorophenyl)-1H-pyrazol-5-yl)methyl)-3-(6-(3-hydroxypyrrolidin-1-yl)pyridin-3-yl)urea], for which the Ki was found to be 61 nM. For the molecule `COc1ccc(C(C)C(=O)NCc2cc(C(F)(F)F)nn2-c2cccc(Cl)c2)cn1` (stereo not shown) [Example 129, N-((1-(3-chlorophenyl)-3-(trifluoromethyl)-1H-pyrazol-5-yl)methyl)-2-(6-methoxypyridin-3-yl)propanamide], the Ki was 13 nM.

For `O=C(NCc1cc(C(F)(F)F)nn1-c1cccc(Cl)c1)Nc1ccc(OCCO)nc1` [Example 133, 1-((1-(3-chlorophenyl)-3-(trifluoromethyl)-1H-pyrazol-5-yl)methyl)-3-(6-(2-hydroxyethoxy)pyridin-3-yl)urea], the Ki was determined as 88 nM.

Staying with this assay, now noted: capsaicin (Cap); human being.
In the case of `COCCOc1ccc(NC(=O)NCc2cc(C(C)(C)C)nn2-c2cccc(Cl)c2)cn1` [Example 131, 1-((3-tert-butyl-1-(3-chlorophenyl)-1H-pyrazol-5-yl)methyl)-3-(6-(2-methoxyethoxy)pyridin-3-yl)urea], the “mode of action at VR1/TRPV1 (AG, pAG, NE), Cap” value is given as “AG”. Turning to `O=C(NCc1cc(C(F)(F)F)nn1-c1cccc(Cl)c1)Nc1ccc(CNCCO)nc1` [Example 134, 1-((1-(3-chlorophenyl)-3-(trifluoromethyl)-1H-pyrazol-5-yl)methyl)-3-(6-((2-hydroxyethylamino)methyl)pyridin-3-yl)urea], the “mode of action at VR1/TRPV1 (AG, pAG, NE), Cap” value was “NE”.
